Where two headings read alike, the source gives them in different places.
How the values were obtained:
[1] = tested on: TF1 IDH2/R140Q cells; details: for RNA expression of differentiation markers KLF1 and HBG: concurrent schedule; for increase in HBG gene expression: COMPOUND 1 0.2 μM, single agents or combination
Protocol: FIG. 2A depicts the effect of the combination of azacitidine and COMPOUND 1 used sequentially on differentiation markers. […] Treated cells were subjected to qRT-PCR (ii) and to HBG qRT-PCR (iii). FIG. 2B depicts the effect of the combination of azacitidine and COMPOUND 1 used concurrently on differentiation markers. […] Treated cells were subjected to qRT-PCR (ii) and to HBG qRT-PCR (iii).
(§1) Measures of cell differentiation, growth and death were evaluated in an engineered TF-1 erythroleukemia cells overexpressing the IDH2/R140Q allele or the empty vector control TF-1/pLVX (Wang et al., Science 340:622-626, 2013). The cells were grown in RPMI containing HEPES and L-glutamine (Lonza 12-115F), 10% FBS (HyClone SH30088.03), Pen/Strep (Life Technologies 15070-063), G418: final concentration 500 μg/ml (Life Technologies 10131-027); GM-CSF: final concentration 5 ng/ml (R&D 215-GM-050). Only newly grown cells were used. G418 and GM-CSF were added fresh to media each time cells were passaged. Media was changed every 2-3 days by pelleting cells and resuspending in fresh media or by adding 2 ml of cells to 10 ml of fresh media. When cells were treated with a compound, the media was changed by pelleting cells to ensure proper concentration of the compound.
The RNA was isolated from cells by RNA easy kit (obtained from Qiagen). 500 ng of RNA was used to make cDNA that was subjected to real-time qPCR to detect fetal hemoglobin (HBG) and KLF-1 gene expression. The RNA easy kit was obtained from Qiagen. cDNA was made from Superscript VILO kit (Life technologies). Taqman probes were obtained from Applied Biosciences.
(§2) Measures of cell differentiation, growth and death were evaluated in TF1-R140Q cells, using an in vitro EPO differentiation assay and dose-schedule paradigms represented in FIG. 1. Cells were treated with vehicle, azacitidine alone, COMPOUND 1 alone, or the combination of azacitidine and COMPOUND 1. In the sequential schedule, cells were pre-treated with azacitidine for three days before adding COMPOUND 1. In the concurrent schedule, cells were co-treated with azacitidine and COMPOUND 1 throughout the assay.

[2] = tested on: TF1-R140Q cells; experiment: Hematopoietic stem cell and blast content determination (CD34, CD38, FACS); assay type: cell-based; details: for CD34+/CD38+ and CD34+/CD38− cell populations: end of EPO-differentiation assay; for decrease of hematopoietic progenitor cells (CD34+/CD38+): sequential treatment, COMPOUND 1 0.2 μM, azacitidine 0.1 μM, single agents or combination
Protocol: Flow cytometry analysis was performed for sequential and concurrent schedules. Hematopoietic progenitor cells (CD34+/CD38+) (i) and stem cells (CD34+/CD38−) (ii) populations were normalized to DMSO+EPO and plotted. Values for population percentage decreases are shown, with those in red font depicting greater than additive effect with the combination as compared to AZA or COMPOUND 1 as single agents.
Cells were blocked in 10×BSA and diluted with MACS rinsing solution to 1× concentration for 15 min (staining buffer, BD Biosciences). Supernatant was removed by spinning. 10 μl of anti-CD34 FITC and anti-CD38 APC antibodies (each in staining buffer) were added. Mouse IgG2a FITC and IgG2a APC were used as isotype controls. Cells were stained for 10 min in dark, the solution was spinned to remove supernatant, the cells were resuspended in 300 μl of staining buffer and proceed to fluorescence-activated cell sorting (FACS).
The hematopoietic stem (CD34+/CD38−) and progenitor (CD34+/CD38+) cell populations were quantified at the end of the EPO-differentiation assay (FIGS. 3 and 8). As single agents, both azacitidine and COMPOUND 1 reduced CD34+/CD38+(FIG. 3i) and CD34+/CD38− (FIG. 3ii) cell populations. […] For example, COMPOUND 1 (0.2 μM) and azacitidine (0.1 μM) as single agents decreased hematopoietic progenitor cells (CD34+/CD38+) by 32% and 7%, respectively, with sequential treatment, while the combination of azacitidine (0.1 μM) and COMPOUND 1 (0.2 μM) decreased the hematopoietic progenitor cell population by 64% (FIG. 3i).

[3] = tested on: TF1 IDH2/R140Q cells; details: for hemoglobin production (coloration/hemoglobinization of cell pellets): day 14, COMPOUND 1 0.2 and 1 μM, azacitidine 0.1 and 0.3 μM; for hemoglobin production (red color of cell pellets): day 18, COMPOUND 1 0.2 μM and 1.0 μM
Excerpt: FIG. 1 in section A depicts COMPOUND 1 and azacitidine (AZA) combination schedule and dosing paradigms for sequential treatment of: 3 days (QDx3) of pre-treatment with azacitidine followed by treatment with the COMPOUND 1 for one week and erythropoietin (EPO)+COMPOUND 1 for another week. The cells were harvested on Day 18 and subjected to various endpoint assays for monitoring differentiation and death. FIG. 1, in section B depicts COMPOUND 1 and azacitidine combination schedule and dosing paradigms for concurrent treatment of: treatment for 7 days with the combination of azacitidine and COMPOUND 1 followed by 7 days of the treatment with azacitidine, COMPOUND 1 and EPO. The cells were harvested on Day 14 and subjected to various endpoint assays for monitoring differentiation and death.
as §1
F1/pLVX and TF1 IDH2/R140Q cells (100,000 cells/ml) were pretreated for 7 days with COMPOUND 1, azacitidine or combination thereof (medium was changed every 2 days) and washed with PBS to remove residual GM-CSF. Cells were induced to differentiate using EPO (2 unit/ml) in the presence or absence of COMPOUND 1. Induction continued for 7 days and the cell pellets were collected and imaged for hemoglobinization content (as a surrogate for differentiation into blood lineage).
as §2

[4] = tested on: TF1-R140Q cells; experiment: Annexin V/7-AAD flow cytometry cell death analysis; assay type: cell-based; details: concurrent dose-schedule regimen; average values across dose concentrations
Protocol: Annexin V and 7-AAD flow cytometry analysis was performed for sequential (day 18) and concurrent (day 14) dosing schedules. Populations were normalized to DMSO+EPO and fold change of percent Annexin V+ and/or 7-AAD+ was plotted.
Cell death was analyzed via Annexin V/7-AAD flow cytometry at the end of the EPO-differentiation assay (FIGS. 4 and 9). In the sequential dose-schedule regimen, there was no induction (<2-fold) of death (AnnexinV+ and/or 7AAD+) with a single agent. In the concurrent dose-schedule regimen, azacitidine and COMPOUND 1 as single agents increased the percentage of AnnexinV+ and/or 7AAD+ cells by 3.4-fold and 3.5-fold (average values across dose concentrations), respectively.

[5] = tested on: TF-1 R140Q cells; experiment: Real-time growth and apoptosis (Caspase 3/7 dye) on IncuCyte Zoom; assay type: cell-based; details: for cell growth: COMPOUND 1 1-10 μM
Protocol: The TF-1 R140Q cells were pre-treated in bulk in flasks with 1 μM of QDx3 azacitidine and then plated with COMPOUND 1 concentrations of 10, 3 and 0.3 μM and Caspase 3/7 dye (obtained from Essen Biosciences) to monitor real-time growth and apoptosis on IncuCyte Zoom up to 104 hrs.
The TF-1 R140Q cells were plated with the combination of azacitidine (1 and 0.3 μM) and COMPOUND 1 (1 μM) and imaged for real-time growth and apoptosis on IncuCyte Zoom up to 104 hrs.
A real-time death analysis was performed using IncuCyte Zoom (FIGS. 5 and 6).

[6] = cited from earlier work
[7] = oral azacitidine; cited from earlier work
[8] = sequential experiment, azacitidine 1 μM

For `CC(C)(O)CNc1nc(Nc2ccnc(C(F)(F)F)c2)nc(-c2cccc(C(F)(F)F)n2)n1` [COMPOUND 1, 2-methyl-1-[(4-[6-(trifluoromethyl)pyridin-2-yl]-6-{[2-(trifluoromethyl)pyridin-4-yl]amino}-1,3,5-triazin-2-yl)amino]propan-2-ol], the “RNA expression of differentiation markers KLF1 and HBG” value [1] was “Dose-dependent increases”, the “increase in HBG gene expression” value ([1]; concurrent, azacitidine 1 μM) was 2.5 fold and the “increase in HBG gene expression” value ([1]; sequential, azacitidine 0.3 μM) was 241 fold. For the same compound, the “CD34+/CD38+ and CD34+/CD38− cell populations” value [2] was “reduced”, the “decrease of hematopoietic progenitor cells (CD34+/CD38+)” value [2] was 32% and the “hemoglobin production (coloration/hemoglobinization of cell pellets)” value ([3]; concurrent dosing regimen) was “increased hemoglobin production upon EPO differentiation in a dose-dependent manner”. For the same compound, the “time to observe increased red color of cells (haem production) post-EPO” value ([3]; sequential schedule) was 7 days, the “hemoglobin production (red color of cell pellets)” value ([3]; sequential schedule) was “increased hemoglobin production in a dose-dependent manner” and the “increase in percentage of AnnexinV+ and/or 7AAD+ cells” value [4] was 3.5 fold. For the same compound, the cell growth [5, 8] was “no effect on cell growth” and the “caspase 3/7 death measure” value ([5]; summary, single agent, or concurrent combination) was “no effect”.

For `Nc1ncn([C@H]2C[C@H](O)[C@@H](CO)O2)c(=O)n1` [Decitabine, 4-amino-1-(2-deoxy-β-D-erythro-pentofuranosyl)-1,3,5-triazin-2(1H)one], the solubility ([6]; dimethylsulfoxide (DMSO)) is given as “soluble”, the solubility ([6]; ethanol/water (50/50), methanol/water (50/50) and methanol) is given as “slightly soluble” and the solubility ([6]; water) is given as “sparingly soluble”.

In the case of `Nc1ncn([C@@H]2O[C@H](CO)[C@@H](O)[C@H]2O)c(=O)n1` [azacitidine, 4-amino-1-O-D-ribofuranozyl-s-triazin-2(1H)-one], the “RNA expression of differentiation markers KLF1 and HBG” value [1] was “Dose-dependent increases”, the “increase in HBG gene expression” value ([1]; concurrent, azacitidine 1 μM) was 7.1 fold and the “increase in HBG gene expression” value ([1]; sequential, azacitidine 0.3 μM) was 92 fold. For the same compound, the “CD34+/CD38+ and CD34+/CD38− cell populations” value [2] was “reduced”, the “decrease of hematopoietic progenitor cells (CD34+/CD38+)” value [2] was 7% and the solubility ([6]; acetone, ethanol and methyl ketone) was “insoluble”. The solubility ([6]; dimethylsulfoxide (DMSO)) was “soluble”, the solubility ([6]; ethanol/water (50/50), propylene glycol and polyethylene glycol) was “slightly soluble” and the solubility ([6]; water, water-saturated octanol, 5% dextrose in water, N-methyl-2-pyrrolidone, normal saline and 5% Tween 80 in water) was “sparingly soluble”. The “hemoglobin production (coloration/hemoglobinization of cell pellets)” value ([3]; concurrent dosing regimen) was “increased hemoglobin production”, the “cell death as evidenced by decreased cell pellet sizes” value ([3]; concurrent dosing regimen, azacitidine 1 μM) was “cell death occurred” and the “hemoglobin production (red color of cell pellets)” value ([3]; sequential schedule) was “little or no effect on cell pellet color”. The “increase in percentage of AnnexinV+ and/or 7AAD+ cells” value [4] was 3.4 fold, the maximum tolerated dose [7] was 480 mg and the cell growth [5, 8] was “reduced growth”. The apoptosis [5, 8] was “increased apoptosis”.

From patent publication US10695352B2, “Combination therapy for treating malignancies” (Celgene Corporation, priority 2015, dated 2020)
